Measurements: ChEMBL document CHEMBL1201862, “PubChem BioAssay data set” (2004)
Activity calls are given as the source filed them.

Legend:
[1] = system: BJ; experiment: BJ-TERT fibroblast viability loss – cell-based, RAS-independent, luminescence, dose response (AID 1933); type: functional; conditions: Homo sapiens
[2] = system: BJ; experiment: cells; type: functional, cell-based; conditions: Homo sapiens
[3] = system: BJ; experiment: BJ-TERT-LT-ST fibroblast viability loss – cell-based, RAS-independent, luminescence, dose response (AID 1935); type: functional; conditions: Homo sapiens;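 also: BJ fibroblasts immortalized with TERT plus LT and ST oncogenes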
[4] = DRD fibroblast viability loss – cell-based, non-viral oncogenic, luminescence, dose response (AID 1934); type: functional; conditions: Homo sapiens
[5] = system: BJ; experiment: growth inhibition of engineered Ras-driven BJ cells – cell-based, alamar blue fluorescence, cherrypicked samples, dose response (AID 2631); type: functional; conditions: Homo sapiens;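 also: confirmatory dose-response assay in RAS-dependent BJ fibroblasts engineered with TERT, LT and ST, with cytotoxicity read by fluorescence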
[6] = system: INS1; experiment: INS-1E survival protection against cytokine death – cell-based, luminescence, retest, dose response (AID 449756); type: functional; conditions: Rattus norvegicus;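 also: cell death triggered by IL-1 beta plus TNF-alpha plus IFN-gamma mixture; protective hits raise ATP signal compared with cytokine alone wells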
[7] = molecular target: Melanocortin receptor 4 (Homo sapiens, UniProt P32245); experiment: inhibitors of MC4R cAMP signaling – cell-based, TR-FRET, biased antagonists, dose response (AID 602298); type: functional;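 also: antagonist potency against agonist-stimulated cAMP production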
Melanocortin receptor 4, sequence (P32245 whole entry): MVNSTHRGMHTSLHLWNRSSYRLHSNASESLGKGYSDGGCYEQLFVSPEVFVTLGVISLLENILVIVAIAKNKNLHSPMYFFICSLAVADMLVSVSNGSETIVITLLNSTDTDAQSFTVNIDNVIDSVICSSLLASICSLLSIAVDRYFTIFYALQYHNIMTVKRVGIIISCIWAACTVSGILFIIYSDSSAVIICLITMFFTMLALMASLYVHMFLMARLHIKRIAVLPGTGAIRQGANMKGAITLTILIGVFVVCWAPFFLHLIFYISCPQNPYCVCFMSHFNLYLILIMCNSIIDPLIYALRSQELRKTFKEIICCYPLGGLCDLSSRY

[8] = cAMP pathway inhibition in counterscreen cell line – TR-FRET cAMP detection, counter-screen for MC4R biased antagonist project, dose response (AID 602305); type: functional, cell-based;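 also: U2OS cells stimulated with forskolin near its EC80 as the cAMP inducer; potency is for inhibition of forskolin-stimulated cAMP signaling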
[9] = molecular target: T1, Short transient receptor potential channel 4 (Mus musculus, UniProt Q9QUQ5); experiment: block of DAMGO-driven TRPC4 calcium entry – cell-based, HEK293 TRPC4/mu-opioid, Fluo-4 calcium, dose response (AID 434942); type: functional;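 also: potency of inhibitors blocking the TRPC4 calcium response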
T1 sequence (Q9QUQ5 whole entry): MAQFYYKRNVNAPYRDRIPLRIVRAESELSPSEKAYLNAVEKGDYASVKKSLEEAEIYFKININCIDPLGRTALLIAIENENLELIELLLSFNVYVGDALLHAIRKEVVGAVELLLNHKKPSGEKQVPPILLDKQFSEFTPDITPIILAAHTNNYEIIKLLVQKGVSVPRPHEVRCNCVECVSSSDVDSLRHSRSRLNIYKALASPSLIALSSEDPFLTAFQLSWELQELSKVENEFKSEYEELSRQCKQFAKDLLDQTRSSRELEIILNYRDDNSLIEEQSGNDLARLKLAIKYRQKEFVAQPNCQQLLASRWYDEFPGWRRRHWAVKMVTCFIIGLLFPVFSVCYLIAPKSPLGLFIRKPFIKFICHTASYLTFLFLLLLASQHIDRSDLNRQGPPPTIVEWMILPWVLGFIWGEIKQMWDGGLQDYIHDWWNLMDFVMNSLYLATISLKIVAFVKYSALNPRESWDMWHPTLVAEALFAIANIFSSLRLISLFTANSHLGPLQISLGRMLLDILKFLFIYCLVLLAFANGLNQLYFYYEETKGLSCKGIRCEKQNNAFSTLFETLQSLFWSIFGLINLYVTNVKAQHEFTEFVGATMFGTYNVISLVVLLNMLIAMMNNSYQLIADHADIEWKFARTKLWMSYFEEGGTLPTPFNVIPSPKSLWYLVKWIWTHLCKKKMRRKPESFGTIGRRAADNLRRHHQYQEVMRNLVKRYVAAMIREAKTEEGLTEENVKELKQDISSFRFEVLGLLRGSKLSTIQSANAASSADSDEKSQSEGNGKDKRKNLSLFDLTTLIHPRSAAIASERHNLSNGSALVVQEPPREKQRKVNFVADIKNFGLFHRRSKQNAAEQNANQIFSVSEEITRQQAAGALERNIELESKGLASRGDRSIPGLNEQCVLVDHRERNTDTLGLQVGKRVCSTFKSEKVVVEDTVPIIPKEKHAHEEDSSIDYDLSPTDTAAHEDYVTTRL

[10] = molecular target: FAD-linked sulfhydryl oxidase ALR (Homo sapiens, UniProt P55789); experiment: ALR-catalysed DTT oxidation blockers – biochemical, H2O2 detection, luminescence, cherry-pick, dose response (AID 493248)
FAD-linked sulfhydryl oxidase ALR, sequence (P55789 whole entry): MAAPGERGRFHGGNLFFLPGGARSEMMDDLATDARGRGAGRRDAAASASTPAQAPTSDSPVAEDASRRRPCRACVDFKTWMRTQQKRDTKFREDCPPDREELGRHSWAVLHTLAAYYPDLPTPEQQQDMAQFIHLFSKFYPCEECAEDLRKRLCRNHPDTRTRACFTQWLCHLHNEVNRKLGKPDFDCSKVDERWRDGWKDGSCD

[11] = molecular target: Dual specificity tyrosine-phosphorylation-regulated kinase 1A (Rattus norvegicus, UniProt Q63470); type: biochemical, Homo sapiens
[12] = molecular target: T2, Rac GTPase-activating protein 1 (Homo sapiens, UniProt Q9H0H5); experiment: blockers of MgcRacGAP-driven Rac1 GTP hydrolysis – biochemical, ADP Hunter fluorescence, primary and confirmatory, confirmation (AID 624330); type: functional
T2 sequence (Q9H0H5 whole entry): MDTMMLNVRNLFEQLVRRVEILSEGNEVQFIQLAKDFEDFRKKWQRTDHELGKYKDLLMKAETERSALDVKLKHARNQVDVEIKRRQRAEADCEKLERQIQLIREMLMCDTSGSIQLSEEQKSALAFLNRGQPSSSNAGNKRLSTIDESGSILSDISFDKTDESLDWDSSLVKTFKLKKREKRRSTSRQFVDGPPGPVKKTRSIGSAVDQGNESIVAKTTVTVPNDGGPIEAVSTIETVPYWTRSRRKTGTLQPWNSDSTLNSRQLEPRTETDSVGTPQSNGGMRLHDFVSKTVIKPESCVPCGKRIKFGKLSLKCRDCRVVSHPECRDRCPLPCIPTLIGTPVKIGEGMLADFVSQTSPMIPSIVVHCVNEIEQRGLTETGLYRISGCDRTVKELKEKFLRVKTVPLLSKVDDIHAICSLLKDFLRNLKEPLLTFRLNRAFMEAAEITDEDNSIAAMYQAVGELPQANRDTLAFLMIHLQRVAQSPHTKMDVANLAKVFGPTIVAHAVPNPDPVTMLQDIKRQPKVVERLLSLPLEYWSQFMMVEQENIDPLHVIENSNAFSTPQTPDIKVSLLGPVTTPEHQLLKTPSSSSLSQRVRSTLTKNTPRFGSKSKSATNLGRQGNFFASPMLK

[13] = system: Vero; experiment: cells; type: functional; conditions: Chlorocebus sabaeus
[14] = molecular target: T3, RNA-binding protein pos-1 (Caenorhabditis elegans, UniProt G5EF15); experiment: disruptors of C. elegans POS-1 RNA interaction – biochemical, fluorescence polarization, dose response (AID 1964);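 also: purified POS-1 fused to maltose binding protein made in E. coli; potency of compounds blocking POS-1 binding to fluorescent RNA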
T3 sequence (G5EF15 whole entry): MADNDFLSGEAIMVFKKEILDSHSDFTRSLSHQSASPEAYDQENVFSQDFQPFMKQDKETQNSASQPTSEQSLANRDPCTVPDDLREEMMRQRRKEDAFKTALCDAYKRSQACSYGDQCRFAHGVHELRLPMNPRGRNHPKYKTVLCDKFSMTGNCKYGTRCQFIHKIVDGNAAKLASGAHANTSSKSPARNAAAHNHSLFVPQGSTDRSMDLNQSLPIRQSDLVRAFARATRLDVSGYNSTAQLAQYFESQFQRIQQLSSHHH

[15] = Luminescence Cell-Based Dose Response HTS to Identify Inhibitors of 5'UTR Stem-Loop Driven Prion Protein mRNA Translation in H4 Neuroglioblastoma Cells. [Related pubchem assays: 1827 (Project Summary), 1813 (Primary HTS)]; type: functional
[16] = molecular target: T4, Zinc finger protein mex-5 (Caenorhabditis elegans, UniProt Q9XUB2); experiment: potency of MEX-5 RNA-binding blockers – biochemical, C. elegans, fluorescence polarization, dose response (AID 1960)
T4 sequence (Q9XUB2 whole entry): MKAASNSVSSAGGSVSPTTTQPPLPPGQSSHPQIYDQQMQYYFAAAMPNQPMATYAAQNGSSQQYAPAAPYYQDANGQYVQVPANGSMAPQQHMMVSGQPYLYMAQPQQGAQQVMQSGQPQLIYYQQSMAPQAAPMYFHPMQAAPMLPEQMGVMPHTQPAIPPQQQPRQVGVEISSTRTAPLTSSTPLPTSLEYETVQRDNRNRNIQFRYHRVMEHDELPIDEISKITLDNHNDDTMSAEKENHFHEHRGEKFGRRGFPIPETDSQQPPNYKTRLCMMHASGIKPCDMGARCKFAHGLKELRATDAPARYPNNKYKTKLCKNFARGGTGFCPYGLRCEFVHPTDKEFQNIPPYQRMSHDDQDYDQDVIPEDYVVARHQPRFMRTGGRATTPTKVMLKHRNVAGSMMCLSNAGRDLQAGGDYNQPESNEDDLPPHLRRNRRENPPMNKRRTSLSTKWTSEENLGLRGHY

[17] = alpha-synuclein stem-loop luciferase translation blockers – H4 neuroglioma cells, luminescence, confirmation (AID 1988); type: functional, cell-based
[18] = molecular target: Luciferin 4-monooxygenase (Photinus pyralis, UniProt P08659); experiment: inhibition of purified Photinus pyralis luciferase – biochemical, luminescence, dose response (AID 1891)
Luciferin 4-monooxygenase, sequence (P08659 whole entry): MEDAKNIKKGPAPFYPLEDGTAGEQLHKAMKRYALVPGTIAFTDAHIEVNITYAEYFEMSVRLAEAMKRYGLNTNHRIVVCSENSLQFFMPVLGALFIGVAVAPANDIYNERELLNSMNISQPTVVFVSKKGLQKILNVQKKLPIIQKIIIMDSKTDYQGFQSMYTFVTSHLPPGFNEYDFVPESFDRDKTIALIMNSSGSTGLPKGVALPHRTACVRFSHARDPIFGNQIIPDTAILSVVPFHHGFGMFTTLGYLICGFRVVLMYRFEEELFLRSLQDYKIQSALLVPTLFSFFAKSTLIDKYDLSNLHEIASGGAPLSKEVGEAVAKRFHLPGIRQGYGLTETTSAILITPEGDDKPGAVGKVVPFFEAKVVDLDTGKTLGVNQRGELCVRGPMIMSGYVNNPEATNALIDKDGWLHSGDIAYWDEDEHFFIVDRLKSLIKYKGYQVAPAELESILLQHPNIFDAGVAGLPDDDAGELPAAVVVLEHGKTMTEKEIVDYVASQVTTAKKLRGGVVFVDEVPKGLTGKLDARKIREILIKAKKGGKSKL

[19] = Luminescence Cell-Based Dose Confirmation HTS to Identify Inhibitors of Platelet Dense Granule Release. [Related pubchem assays: 1663 (Primary HTS), 1678 (Summary of Project)]; type: functional
[20] = molecular target: Glucose-6-phosphate 1-dehydrogenase (Homo sapiens, UniProt P11413); experiment: inhibition of Homo sapiens G6PD, dose series – biochemical, fluorescence, selectivity assay for P. falciparum G6PD inhibitor project, dose response (AID 504792); type: functional
Glucose-6-phosphate 1-dehydrogenase, sequence (P11413 whole entry): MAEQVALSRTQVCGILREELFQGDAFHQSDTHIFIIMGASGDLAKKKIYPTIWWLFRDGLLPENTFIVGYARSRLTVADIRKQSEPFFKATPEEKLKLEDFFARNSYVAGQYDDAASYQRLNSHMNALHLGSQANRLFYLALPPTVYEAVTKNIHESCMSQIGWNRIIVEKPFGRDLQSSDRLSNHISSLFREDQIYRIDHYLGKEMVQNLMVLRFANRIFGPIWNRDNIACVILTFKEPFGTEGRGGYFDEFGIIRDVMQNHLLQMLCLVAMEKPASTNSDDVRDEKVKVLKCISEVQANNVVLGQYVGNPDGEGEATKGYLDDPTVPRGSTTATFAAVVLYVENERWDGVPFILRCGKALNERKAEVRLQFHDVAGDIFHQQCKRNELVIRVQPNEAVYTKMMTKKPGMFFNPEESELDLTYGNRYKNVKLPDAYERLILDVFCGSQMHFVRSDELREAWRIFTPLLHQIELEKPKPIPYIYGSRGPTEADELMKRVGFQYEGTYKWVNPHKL

[21] = molecular target: Protein Wnt-3a (Mus musculus, UniProt P27467); experiment: antagonism of Wnt3a pathway luciferase reporter – Wnt-LIGHT cells, luminescence, selectivity assay for Gli-SUFU antagonist project, dose response (AID 651570); type: functional; conditions: read-out: IC50_Mean;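 also: Wnt-LIGHT reporter cells stimulated with conditioned medium from Wnt3a-producing cells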
Protein Wnt-3a, sequence (P27467 whole entry): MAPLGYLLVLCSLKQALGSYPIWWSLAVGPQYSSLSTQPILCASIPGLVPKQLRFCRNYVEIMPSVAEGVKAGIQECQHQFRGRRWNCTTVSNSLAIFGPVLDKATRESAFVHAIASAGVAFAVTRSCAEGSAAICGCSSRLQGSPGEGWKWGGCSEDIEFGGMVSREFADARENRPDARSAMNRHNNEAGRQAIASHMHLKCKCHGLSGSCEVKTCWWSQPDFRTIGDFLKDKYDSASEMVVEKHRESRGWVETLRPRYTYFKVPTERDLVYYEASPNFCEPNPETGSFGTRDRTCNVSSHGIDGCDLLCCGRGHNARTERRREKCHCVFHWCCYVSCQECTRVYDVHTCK

[22] = system: HEK293; experiment: EBV LMP1 TES2 canonical NF-kB signalling blockers – cell-based, HEK293, luciferase, cherry-pick, dose response (AID 588343); type: functional; conditions: Homo sapiens
[23] = THP-1 cell cytotoxicity, dose response, cytotoxicity control for non-replicating M. tuberculosis project (AID 489025); type: functional
[24] = cells; type: functional

SMILES: O=C(NCc1cccnc1)c1ccc(-c2cc3ccccc3oc2=O)cc1
- EC50 [1]: 22.6 µM (active)
- EC50 [2]: 11.8 µM (inconclusive)
- EC50 [3]: 3.16 µM (active)
- EC50 [4]: > 150 µM (not active)
- EC50 [5]: 6.49 µM (active)
- AC50 [6]: 3.61 µM (active)

SMILES: COc1ccc(-n2c(SC3CCOC3=O)nc3ccccc32)cc1 (stereo unspecified)
- IC50 [7]: > 64.6 µM (inactive)
- IC50 [8]: > 64.6 µM (inactive)

SMILES: O=C(CCl)N(CCCNC(=O)C(F)(F)F)c1ccc([N+](=O)[O-])cc1
- EC50 [1]: 2.53 µM (inconclusive)
- EC50 [2]: 4.39 µM (active)
- EC50 [3]: 11.6 µM (inconclusive)
- EC50 [4]: 4.66 µM (active)
- EC50 [5]: 0.995 µM (active)

SMILES: COc1cc(/C=C2\SC(N3CCC(C)CC3)=NC2=O)ccc1O
- EC50 [9]: 3.35 µM (active)
- AC50 [10]: 0.929 µM (active)
- AC50 [11]: 2.68 µM (active)
- IC50 [12]: 16.3 µM (active)

SMILES: COC(=O)c1c(NC(=O)CC2SCC(C(=O)OC)NC2=O)sc2c1CCCC2 (stereo unspecified)
- IC50 [7]: > 64.6 µM (inactive)
- IC50 [8]: > 64.6 µM (inactive)

SMILES: C/C(=C\[C@@H](NP(=O)(c1ccccc1)c1ccccc1)c1ccccc1)CO[Si](c1ccccc1)(c1ccccc1)C(C)(C)C
- CC50 [13]: > 25 µM (active)

SMILES: C(=N\Nc1nc2ccccc2[nH]1)/c1ccccn1
- EC50 [14]: 72.9 µM (active)
- EC50 [15]: 1.29 µM (active)
- EC50 [16]: 41.7 µM (active)
- EC50 [17]: 5.82 µM (active)
- EC50 [18]: 1.16 µM (active)
- EC50 [19]: 4.15 µM (active)
- IC50 [20]: > 80 µM (inactive)
- EC50 [5]: 1.99 µM (active)

SMILES: CN1C(=O)/C(=C\c2ccc(N3CCCCCC3)cc2)C(=O)NC1=S
- CC50 [13]: 17.9 µM (active)

SMILES: Cc1nn(-c2ccc(NC(=O)c3ccncc3)cc2)c(C)c1Cl
- IC50 [21]: 3 µM (active)

SMILES: COc1cccc(C(=O)N2CCN(c3nc4cc(C)cc(C)c4cc3C#N)CC2)c1
- AC50 [22]: 194 µM (active)

SMILES: COc1cccc2[nH]c3c(Cl)ncnc3c12
- CC50 [23]: 33.9 µM (active)
- IC50 [24]: > 50 µM (active)
- IC50 [7]: > 64.6 µM (inactive)
- IC50 [8]: > 64.6 µM (inactive)

SMILES: COC(=O)c1cc(S(=O)(=O)N2CCC(c3cc(OC)ccc3OC)C2)c[nH]1 (stereo unspecified)
- IC50 [21]: 7.87 µM (active)
